In patent US9302999B2, “Substituted triazoles as herbicides” (E. I. DU PONT DE NEMOURS AND COMPANY, priority 2012, dated 2016):

Key:
Type in all cases: in vivo
[1] = tested on: blackgrass (Alopecurus myosuroides); assay: Test C pre-/postemergence: blackgrass; details: Preemergence
Description: (§1) Seeds of plant species selected from blackgrass (Alopecurus myosuroides), bromegrass, downy (downy bromegrass, Bromus tectorum), foxtail, green (green foxtail, Setaria viridis), ryegrass, Italian (Italian ryegrass, Lolium multiflorum), winter wheat (Triticum aestivum), wild oat (Avena fatua), galium (catchweed bedstraw, Galium aparine), bermudagrass (Cynodon dactylon), surinam grass (Brachiaria decumbens), cocklebur (common cocklebur, Xanthium strumarium), corn (Zea mays), large crabgrass (Digitaria sanguinalis), woolly cupgrass (Eriochloa villosa), foxtail, giant (giant foxtail, Setaria faberii), goosegrass (Eleusine indica), johnsongrass (Sorghum halepense), kochia (Kochia scoparia), lambsquarters (Chenopodium album), morningglory (Ipomoea coccinea), nightshade (eastern black nightshade, Solanum ptycanthum), nutsedge, yellow (yellow nutsedge, Cyperus esculentus), pigweed (Amaranthus retroflexus), ragweed (common ragweed, Ambrosia elation), soybean (Glycine max), common (oilseed) sunflower (Helianthus annuus), Russian thistle (Salsola kali) and velvetleaf (Abutilon theophrasti) were planted into a blend of loam soil and sand and treated preemergence with test chemicals formulated in a non-phytotoxic solvent mixture which included a surfactant.
(§2) At the same time, plants selected from these crop and weed species and also barley (winter barley, Hordeum vulgare), canarygrass (Phalaris minor), chickweed (common chickweed, Stellaria media) windgrass (Apera spica-venti) and deadnettle (henbit deadnettle, Lamium amplexicaule) were planted in pots containing Redi-Earth® planting medium (Scotts Company, 14111 Scottslawn Road, Marysville, Ohio 43041) comprising spaghnum peat moss, vermiculite, wetting agent and starter nutrients and treated with postemergence applications of test chemicals formulated in the same manner. Plants ranged in height from 2 to 18 cm (1- to 4-leaf stage) for postemergence treatments.
(§3) Treated plants and controls were maintained in a greenhouse for 13 to 15 days, after which time all species were compared to controls and visually evaluated. Plant response ratings, summarized in Table C, are based on a scale of 0 to 100 where 0 is no effect and 100 is complete control. A dash (-) response means no test result.

[2] = tested on: velvetleaf (Abutilon theophrasti); assay: Test A pre-/postemergence: velvetleaf
How it was run: (§4)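 Seeds were sown in loam/sand blend and sprayed preemergence (directed soil spray) and, simultaneously, postemergence at 2–10 cm, one- to two-leaf stage, using compounds in non-phytotoxic solvent with surfactant. After ~10 days in greenhouse, injury was rated visually versus untreated controls, 0 (no effect) to 100 (complete control).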

[3] = tested on: foxtail, giant (giant foxtail, Setaria faberii); assay: Test A pre-/postemergence: foxtail, giant
How it was run: as §4

[4] = tested on: morningglory (Ipomoea spp.); assay: Test A pre-/postemergence: morningglory
How it was run: as §4

[5] = tested on: barnyardgrass (Echinochloa crus-galli); assay: Test A pre-/postemergence: barnyardgrass
How it was run: as §4

[6] = tested on: pigweed (Amaranthus retroflexus); assay: Test C pre-/postemergence: pigweed; details: Preemergence
Description: as §1, §2, §3

[7] = tested on: lambsquarters (Chenopodium album); assay: Test C pre-/postemergence: lambsquarters; details: Preemergence
Description: as §1, §2, §3

[8] = tested on: wheat (Triticum aestivum); assay: Test A pre-/postemergence: wheat
How it was run: as §4

[9] = tested on: ryegrass, Italian (Italian ryegrass, Lolium multiflorum); assay: Test C pre-/postemergence: ryegrass, Italian; details: Preemergence
Description: as §1, §2, §3

[10] = tested on: large crabgrass (Digitaria sanguinalis); assay: Test C pre-/postemergence: large crabgrass; details: Preemergence
Description: as §1, §2, §3

[11] = 16 g ai/ha, scale 0 (no effect) to 100 (complete control)
[12] = 31 g ai/ha, scale 0 (no effect) to 100 (complete control)
[13] = 62 g ai/ha, scale of 0 to 100, 0 is no effect, 100 is complete control
[14] = 125 g ai/ha, scale 0 to 100, 0 no effect, 100 complete control
[15] = Postemergence, 125 g ai/ha, 0 to 100 scale, 0 is no effect, 100 is complete control
[16] = Postemergence, 500 g ai/ha, 0 to 100 scale, 0 is no effect, 100 is complete control
[17] = Preemergence, 125 g ai/ha, 0 to 100 scale where 0 is no effect and 100 is complete control
[18] = Preemergence, 500 g ai/ha, 0 to 100 scale (0 no effect, 100 complete control)

`CCOc1nn(-c2ccc(Br)cc2)nc1Cc1ccnc(C(F)(F)F)c1` [Compound 189] was tested, and the “Plant response rating, Blackgrass” value [1, 11] was 75, the “Plant response rating, Blackgrass” value [1, 12] was 90 and the “Plant response rating, Blackgrass” value [1, 13] was 100. For the same molecule, the “Plant response rating, Blackgrass” value [1, 14] was 100, the “Plant response rating, Velvetleaf” value [2, 15] was 70 and the “Velvetleaf plant response rating” value [2, 16] was 90. The “Plant response rating, Velvetleaf” value [2, 17] was 20, the “Plant response rating, Velvetleaf” value [2, 18] was 60 and the “Plant response rating, Foxtail, Giant” value [3, 15] was 90. The “Foxtail, Giant plant response rating” value [3, 16] was 90, the “Plant response rating, Foxtail, Giant” value [3, 17] was 100 and the “Plant response rating, Foxtail, Giant” value [3, 18] was 100. The “Plant response rating, Morningglory” value [4, 15] was 60, the “Morningglory plant response rating” value [4, 16] was 80 and the “Plant response rating, Morningglory” value [4, 17] was 20. The “Plant response rating, Morningglory” value [4, 18] was 30, the “Plant response rating, Barnyardgrass” value [5, 15] was 60 and the “Barnyardgrass plant response rating” value [5, 16] was 80. For the same molecule, the “Plant response rating, Barnyardgrass” value [5, 17] was 80, the “Plant response rating, Barnyardgrass” value [5, 18] was 90 and the “Plant response rating, Pigweed” value [6, 11] was 85. The “Plant response rating, Pigweed” value [6, 12] was 98, the “Plant response rating, Pigweed” value [6, 13] was 100 and the “Plant response rating, Pigweed” value [6, 14] was 100. The “Plant response rating, Lambsquarters” value [7, 11] was 45, the “Plant response rating, Lambsquarters” value [7, 12] was 85 and the “Plant response rating, Lambsquarters” value [7, 13] was 90. For the same molecule, the “Plant response rating, Lambsquarters” value [7, 14] was 90, the “Plant response rating, Wheat” value [8, 15] was 50 and the “Wheat plant response rating” value [8, 16] was 60. For the same molecule, the “Plant response rating, Wheat” value [8, 17] was 20, the “Plant response rating, Wheat” value [8, 18] was 50 and the “Plant response rating, Ryegrass, Italian” value [9, 11] was 50. The “Plant response rating, Ryegrass, Italian” value [9, 12] was 60, the “Plant response rating, Ryegrass, Italian” value [9, 13] was 85 and the “Plant response rating, Ryegrass, Italian” value [9, 14] was 100. For the same molecule, the “Plant response rating, Crabgrass, Large” value [10, 11] was 98, the “Plant response rating, Crabgrass, Large” value [10, 12] was 98 and the “Plant response rating, Crabgrass, Large” value [10, 13] was 100. For the same molecule, the “Plant response rating, Crabgrass, Large” value [10, 14] was 100.
